Columns and labels:
[1] = cited from earlier work
[2] = system: Staphylococcus aureus; test: Antimicrobial preservative efficacy test (dilution neutralization), preservative as WFI solution; assay type: cell-based
From the text: (§1) Preservatives are commonly used in multi-dose formulations, including animal vaccines, to prevent bacterial or fungal growth in field conditions and are employed to minimize contamination of the formulations during repeated (non-sterile) punctures into the vial. Preservatives must pass antimicrobial effectiveness testing (AET), as described in the US pharmacopeia. As disclosed herein, Applicants performed the antimicrobial tests according to United States Pharmacopeia (USP), British Pharmacopeia (BP), and European Pharmocopeia (EP). Four test organisms were used: Candida albicans, Pseudomonas aeruginosa, Staphylococcus aureus, and A. brasiliensis. And while thimerosal and formol continue to play an important role in veterinary vaccines, European authorities encourage the development of vaccines that are free from those compounds.
(§2) For each concentration of polyamide polymer, dilution neutralization was carried out by inoculating 10 mL of test product with 100 μL of each test strain. Countings were performed at Do, 6 h (bacteria only), 24 h (bacteria only), D7, D14 and D28. For each counting, 1 mL of the sample was neutralized in 9 mL of neutralizing solution (10 minutes), for S. aureus, a second 1:10 dilution in the same solution. Then 1 mL of the mixture was transferred in Petri dishes and covered with 15 mL of agar medium (Trypcase Soy Agar for bacteria and Sabouraud Dextrosed Agar for yeasts and molds). The countings were achieved after 24-48 hours incubation at 32.5° C.±2.5° C. for bacteria, and 48-72 hours at 22.5° C.[…] for yeasts and molds. The test micro-organisms included Staphylococcus aureus, Pseudomonas aeruginosa, Candida albicans and Aspergillus brasiliensis. Finally, the neutralization solution contained: Tween 80 (10%), lecithin (2%), saponin (2%), sodium thiosulfate (0.5%) and buffered solution chloride. The saponin was from the bark of Quillaja saponaria.
(§3) For each concentration of octenidine, dilution neutralization was carried out as disclosed in Example 1.

[3] = system: Pseudomonas aeruginosa; test: as above; assay type: cell-based
From the text: as §1, §2, §3

In the case of `CCCCCCCCN=c1ccn(CCCCCCCCCCn2ccc(=NCCCCCCCC)cc2)cc1.Cl.Cl` [Octenidine Dihydrochloride, Octenidine dihydrochloride], the LD50 on rat [1] is given as “LD50 on rat = 10 mg/kg”, the log reduction ([2]; 0.001 mg/mL, 6 h) is given as 3.8 log and the viable count ([2]; 0.001 mg/mL, 6 h) is given as 1.6 × 10^2. For the same molecule, the log reduction ([2]; 0.001 mg/mL, 24 h) was greater than 5 log, the viable count ([2]; 0.001 mg/mL, 24 h) was less than 10 and the log reduction ([2]; 0.001 mg/mL, 7 d) was 3.7 log. For the same molecule, the viable count ([2]; 0.001 mg/mL, 7 d) was 2 × 10^2, the log reduction ([2]; 0.001 mg/mL, 14 d) was 3.9 log and the viable count ([2]; 0.001 mg/mL, 14 d) was 1.4 × 10^2. For the same molecule, the log reduction ([2]; 0.001 mg/mL, 28 d) was 4.4 log, the viable count ([2]; 0.001 mg/mL, 28 d) was 40 and the viable count ([2]; 0.001 mg/mL, T0) was 1.6 × 10^5. For the same molecule, the log reduction ([2]; 0.01 mg/mL, 6 h) was greater than 5 log, the viable count ([2]; 0.01 mg/mL, 6 h) was less than 10 and the log reduction ([2]; 0.01 mg/mL, 24 h) was greater than 5 log. The viable count ([2]; 0.01 mg/mL, 24 h) was less than 10, the log reduction ([2]; 0.01 mg/mL, 7 d) was greater than 5 log and the viable count ([2]; 0.01 mg/mL, 7 d) was less than 10. The log reduction ([2]; 0.01 mg/mL, 14 d) was greater than 5 log, the viable count ([2]; 0.01 mg/mL, 14 d) was less than 10 and the log reduction ([2]; 0.01 mg/mL, 28 d) was greater than 5 log. It also gave a viable count ([2]; 0.01 mg/mL, 28 d) of less than 10, a viable count ([2]; 0.01 mg/mL, T0) of 10 and a log reduction ([2]; 0.1 mg/mL, 6 h) greater than 5 log. For the same molecule, the viable count ([2]; 0.1 mg/mL, 6 h) was <10^2, the log reduction ([2]; 0.1 mg/mL, 24 h) was greater than 5 log and the viable count ([2]; 0.1 mg/mL, 24 h) was <10^2. The log reduction ([2]; 0.1 mg/mL, 7 d) was greater than 5 log, the viable count ([2]; 0.1 mg/mL, 7 d) was <10^2 and the log reduction ([2]; 0.1 mg/mL, 14 d) was greater than 5 log. The viable count ([2]; 0.1 mg/mL, 14 d) was <10^2, the log reduction ([2]; 0.1 mg/mL, 28 d) was greater than 5 log and the viable count ([2]; 0.1 mg/mL, 28 d) was <10^2. The viable count ([2]; 0.1 mg/mL, T0) was less than 10, the log reduction ([2]; 1 mg/mL, 6 h) was greater than 4 log and the viable count ([2]; 1 mg/mL, 6 h) was <10^2. The log reduction ([2]; 1 mg/mL, 24 h) was greater than 4 log, the viable count ([2]; 1 mg/mL, 24 h) was <10^2 and the log reduction ([2]; 1 mg/mL, 7 d) was greater than 4 log. The viable count ([2]; 1 mg/mL, 7 d) was <10^2, the log reduction ([2]; 1 mg/mL, 14 d) was greater than 4 log and the viable count ([2]; 1 mg/mL, 14 d) was <10^2. The log reduction ([2]; 1 mg/mL, 28 d) was greater than 4 log, the viable count ([2]; 1 mg/mL, 28 d) was <10^2 and the viable count ([2]; 1 mg/mL, T0) was <10^2. For the same molecule, the log reduction ([3]; 0.001 mg/mL, 6 h) was 3 log, the viable count ([3]; 0.001 mg/mL, 6 h) was 1.0 × 10^3 and the log reduction ([3]; 0.001 mg/mL, 24 h) was 3 log. The viable count ([3]; 0.001 mg/mL, 24 h) was 1.0 × 10^4, the log reduction ([3]; 0.001 mg/mL, 7 d) was 0 log and the viable count ([3]; 0.001 mg/mL, 7 d) was >3.3 × 10^6. The log reduction ([3]; 0.001 mg/mL, 14 d) was 0 log, the viable count ([3]; 0.001 mg/mL, 14 d) was >3.3 × 10^6 and the log reduction ([3]; 0.001 mg/mL, 28 d) was 0 log. The viable count ([3]; 0.001 mg/mL, 28 d) was >3.3 × 10^6, the viable count ([3]; 0.001 mg/mL, T0) was 7.5 × 10^4 and the log reduction ([3]; 0.01 mg/mL, 6 h) was greater than 5.1 log. For the same molecule, the viable count ([3]; 0.01 mg/mL, 6 h) was less than 10, the log reduction ([3]; 0.01 mg/mL, 24 h) was greater than 5.1 log and the viable count ([3]; 0.01 mg/mL, 24 h) was less than 10. The log reduction ([3]; 0.01 mg/mL, 7 d) was 4.4 log, the viable count ([3]; 0.01 mg/mL, 7 d) was less than 10 and the log reduction ([3]; 0.01 mg/mL, 14 d) was 4.4 log. The viable count ([3]; 0.01 mg/mL, 14 d) was less than 10, the log reduction ([3]; 0.01 mg/mL, 28 d) was 4.4 log and the viable count ([3]; 0.01 mg/mL, 28 d) was less than 10. It also gave a viable count ([3]; 0.01 mg/mL, T0) of less than 10, a log reduction ([3]; 0.1 mg/mL, 6 h) greater than 5.1 log and a viable count ([3]; 0.1 mg/mL, 6 h) of less than 10. For the same molecule, the log reduction ([3]; 0.1 mg/mL, 24 h) was greater than 5.1 log, the viable count ([3]; 0.1 mg/mL, 24 h) was less than 10 and the log reduction ([3]; 0.1 mg/mL, 7 d) was 4.4 log. It also gave a viable count ([3]; 0.1 mg/mL, 7 d) of 50, a log reduction ([3]; 0.1 mg/mL, 14 d) greater than 5.1 log and a viable count ([3]; 0.1 mg/mL, 14 d) of less than 10.
